Measurements taken from ChEMBL document CHEMBL1201862, “PubChem BioAssay data set” (2004).
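Results reflect a 48-hour exposure of cells in 96-well plates to compound at five concentrations. Abbreviation: GI50, concentration required for 50% inhibition of growth.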 The source made the active and inactive calls. Rule as the data show it: active = GI50 up to about 1.1 µM and inactive = higher.

How the values were obtained:
Experiment in all cases: NCI anticancer screen, dose series, 48 h
[1] = test system: HT-29
[2] = test system: CCRF-CEM
[3] = test system: KM12
[4] = test system: U-251
[5] = test system: Hs-578T
[6] = test system: LOX IMVI
[7] = test system: SR
[8] = test system: HCT-116
[9] = test system: A498
[10] = test system: NCI-H522
[11] = test system: MOLT-4
[12] = test system: UACC-257
[13] = test system: NCI-H460
[14] = test system: UO-31
[15] = test system: M14
[16] = test system: HCC 2998
[17] = test system: OVCAR-3
[18] = test system: A549
[19] = test system: SF-295
[20] = test system: HOP-92

Measured: GI50

O=c1c(-c2ccc(O)cc2)coc2cc(OC3OC(CO)C(O)C(O)C3O)cc(O)c12 (centres undefined)
inactive: [1] > 100 µM | [2] 38.8 µM | [3] > 100 µM | [4] > 10 µM | [5] 61.1 µM | [6] 79.8 µM | [7] 30.3 µM | [8] > 100 µM | [9] > 100 µM | [10] 45.7 µM | [11] 43.1 µM | [12] > 100 µM | [13] 46.9 µM | [14] 22.2 µM | [15] > 10 µM | [16] > 100 µM | [17] > 100 µM | [18] 60.3 µM | [19] 92.7 µM

c1nncn1C12C3C4C5C3C1C5C42 (centres undefined)
inactive: [1] > 100 µM | [2] > 100 µM | [3] > 100 µM | [4] > 100 µM | [5] > 100 µM | [6] > 100 µM | [7] > 100 µM | [8] > 100 µM | [9] > 100 µM | [10] > 100 µM | [11] > 100 µM | [12] > 100 µM | [13] > 100 µM | [16] > 100 µM | [18] > 100 µM | [19] > 100 µM

Cc1nc(N)sc1C(=O)Nc1nc[nH]n1
inactive: [1] > 100 µM | [20] > 100 µM | [3] > 100 µM | [4] > 100 µM | [5] > 100 µM | [6] > 100 µM | [7] 14.1 µM | [8] > 100 µM | [10] > 100 µM | [11] 52.1 µM | [12] > 100 µM | [13] > 100 µM | [14] > 100 µM | [15] > 100 µM | [16] > 100 µM | [17] > 100 µM | [18] > 100 µM | [19] > 100 µM

CC1CNC(c2cccc(OCc3ccc(COc4cccc(C5=NC(C)CN5)c4)cc3)c2)=N1 (centres undefined)
inactive: [1] 25.4 µM | [20] > 100 µM | [2] 18.9 µM | [3] 22.7 µM | [4] 35.6 µM | [5] 20.2 µM | [6] 22 µM | [8] 23.6 µM | [9] > 100 µM | [10] 23 µM | [11] 19.3 µM | [12] 12.6 µM | [13] 22.5 µM | [14] > 100 µM | [15] > 100 µM | [16] 24 µM | [17] 67.9 µM | [18] 40.6 µM | [19] 66.8 µM

CCCSc1ccc2[nH]c(N3C(=O)/C(=C/c4ccc(SC)cc4)N=C3c3ccccc3)cc2c1
inactive: [1] 22.7 µM | [20] > 50 µM | [2] 13.5 µM | [3] 11 µM | [4] 27.1 µM | [5] 28.1 µM | [6] 35.7 µM | [8] 19.9 µM | [9] 26.9 µM | [10] 16.1 µM | [11] 1.87 µM | [12] 17.3 µM | [13] 18.3 µM | [14] > 35.8 µM | [15] 21.4 µM | [16] 14.1 µM | [17] 24.6 µM | [18] 19.5 µM | [19] 29.7 µM

CCOC(=O)NN(C(=O)OCC)c1c(C)cc(C)cc1C
inactive: [1] > 100 µM | [2] > 100 µM | [3] > 100 µM | [4] > 100 µM | [5] > 100 µM | [6] 95.3 µM | [7] > 100 µM | [8] > 100 µM | [9] > 100 µM | [10] > 100 µM | [11] > 100 µM | [12] > 100 µM | [13] > 100 µM | [14] 98.9 µM | [15] > 100 µM | [16] > 100 µM | [17] > 100 µM | [18] > 100 µM

CC(O)CN1c2ccccc2Sc2ccc(Cl)cc21 (centres undefined)
inactive: [1] > 10 µM | [20] > 10 µM | [2] > 10 µM | [3] > 10 µM | [4] > 10 µM | [5] > 10 µM | [6] > 10 µM | [8] > 10 µM | [9] > 10 µM | [10] > 10 µM | [11] > 10 µM | [12] > 10 µM | [13] > 10 µM | [14] > 10 µM | [15] > 10 µM | [16] > 10 µM | [17] > 10 µM | [18] > 10 µM | [19] > 10 µM

CNCC(SC)c1ccc(O)c(O)c1 (centres undefined)
inactive: [1] 30.7 µM | [20] 20.4 µM | [2] 2.67 µM | [3] > 100 µM | [4] 61.1 µM | [5] 66.1 µM | [6] 24.7 µM | [8] 20.7 µM | [9] > 100 µM | [10] 13.7 µM | [11] 17.2 µM | [12] 14.1 µM | [13] 16.7 µM | [14] 43 µM | [15] 52.8 µM | [16] 16.7 µM | [17] 14.1 µM | [18] > 100 µM | [19] > 100 µM

N/N=C1/CCCc2nonc21
inactive: [1] > 100 µM | [20] > 100 µM | [2] > 100 µM | [3] > 100 µM | [4] > 100 µM | [5] > 100 µM | [6] > 100 µM | [7] > 100 µM | [8] > 100 µM | [11] > 100 µM | [12] > 100 µM | [13] > 100 µM | [15] > 100 µM | [16] > 100 µM | [17] > 100 µM | [18] > 100 µM | [19] > 100 µM

CCCCCCCCCCCCC(=O)NCC(=O)NC(Cc1ccccc1)C(=O)Oc1ccc([N+](=O)[O-])cc1 (centres undefined)
inactive: [1] 82.2 µM | [2] 29.4 µM | [3] 55.6 µM | [5] 75.3 µM | [6] 36.2 µM | [7] 33.7 µM | [8] 30.9 µM | [9] > 100 µM | [10] 29.4 µM | [12] > 100 µM | [13] > 100 µM | [14] 92.9 µM | [15] 49.1 µM | [16] 44.4 µM | [17] > 100 µM | [18] > 100 µM | [19] 50.4 µM

CCOP(=O)(OCC)C(c1ccccc1)N(C(=O)NC(F)(F)F)c1cccc(F)c1 (centres undefined)
inactive: [1] > 100 µM | [2] > 100 µM | [3] > 100 µM | [4] > 100 µM | [5] 78.3 µM | [6] > 100 µM | [7] > 100 µM | [8] > 100 µM | [10] > 100 µM | [11] 81.1 µM | [12] > 100 µM | [13] > 100 µM | [14] 58.6 µM | [15] > 100 µM | [16] 55.8 µM | [17] > 100 µM | [18] > 100 µM | [19] > 100 µM
